Measured values from ChEMBL document CHEMBL1201862, “PubChem BioAssay data set” (2004).
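Results reflect a 48-hour exposure of cells in 96-well plates to compound at five concentrations. Here, GI50 denotes the concentration required for 50% inhibition of growth.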 Active and inactive are the calls of the source. Cut-off read from the data, not from the text of the source: active = GI50 up to about 1.1 µM and inactive = higher.

How the values were obtained:
Assay in all cases: inhibition of tumour cell growth, NCI panel, 48 h
NCI-H522 = system: NCI-H522
HCT-116 = system: HCT-116
SN12C = system: SN12C
A549 = system: A549
SK-OV-3 = system: SK-OV-3
HOP-92 = system: HOP-92
M14 = system: M14
HCT-15 = system: HCT-15
CAKI-1 = system: CAKI-1
TK-10 = system: TK-10
HL-60 = system: HL-60
DMS-114 = system: DMS-114
NCI-H226 = system: NCI-H226
DLD-1 = system: DLD-1
SNB-75 = system: SNB-75
HOP-62 = system: HOP-62
ACHN = system: ACHN
UO-31 = system: UO-31
SK-MEL-2 = system: SK-MEL-2
IGROV-1 = system: IGROV-1
M19-MEL = system: M19-MEL
RXF 393 = system: RXF 393
A498 = system: A498
OVCAR-5 = system: OVCAR-5
KM-20L2 = system: KM-20L2
SF-539 = system: SF-539
OVCAR-4 = system: OVCAR-4
786-0 = system: 786-0
EKVX = system: EKVX
Malme-3M = system: Malme-3M
NCI-H460 = system: NCI-H460
RXF 631 = system: RXF 631
LOX IMVI = system: LOX IMVI
U-251 = system: U-251
K562 = system: K562
SW-620 = system: SW-620
CCRF-CEM = system: CCRF-CEM
NCI-H23 = system: NCI-H23
RPMI-8226 = system: RPMI-8226
SNB-78 = system: SNB-78
HCC 2998 = system: HCC 2998
SF-268 = system: SF-268
LXFL 529 = system: LXFL 529
XF498 = system: XF498
COLO 205 = system: COLO 205
SK-MEL-28 = system: SK-MEL-28
OVCAR-8 = system: OVCAR-8
MOLT-4 = system: MOLT-4
SNB-19 = system: SNB-19
UACC-62 = system: UACC-62

COC(=O)C(CC(=O)Nc1ccc(C)cc1)C(=O)C(=O)Nc1c(C(C)C)cccc1C(C)C (stereo not given)
GI50 (NCI-H522): > 100 µM (inactive) | GI50 (HCT-116): > 100 µM (inactive) | GI50 (SN12C): > 100 µM (inactive) | GI50 (A549): > 100 µM (inactive) | GI50 (SK-OV-3): > 100 µM (inactive) | GI50 (HOP-92): > 100 µM (inactive) | GI50 (M14): > 100 µM (inactive) | GI50 (HCT-15): 48.6 µM | GI50 (CAKI-1): > 100 µM (inactive) | GI50 (TK-10): > 100 µM (inactive) | GI50 (HL-60): > 100 µM (inactive) | GI50 (DMS-114): > 100 µM (inactive) | GI50 (NCI-H226): > 100 µM (inactive) | GI50 (DLD-1): > 100 µM (inactive) | GI50 (SNB-75): 97.7 µM (inactive) | GI50 (HOP-62): > 100 µM (inactive) | GI50 (ACHN): > 100 µM (inactive) | GI50 (UO-31): > 100 µM (inactive) | GI50 (SK-MEL-2): > 100 µM (inactive) | GI50 (IGROV-1): > 100 µM (inactive) | GI50 (M19-MEL): > 100 µM (inactive) | GI50 (RXF 393): > 100 µM (inactive) | GI50 (A498): > 100 µM (inactive) | GI50 (OVCAR-5): > 100 µM (inactive) | GI50 (KM-20L2): > 100 µM (inactive) | GI50 (SF-539): > 100 µM (inactive) | GI50 (OVCAR-4): > 100 µM (inactive) | GI50 (786-0): > 100 µM (inactive) | GI50 (EKVX): > 100 µM (inactive) | GI50 (Malme-3M): > 100 µM (inactive) | GI50 (NCI-H460): > 100 µM (inactive) | GI50 (RXF 631): > 100 µM (inactive) | GI50 (LOX IMVI): > 100 µM (inactive) | GI50 (U-251): > 100 µM (inactive) | GI50 (K562): > 100 µM (inactive) | GI50 (SW-620): > 100 µM (inactive) | GI50 (CCRF-CEM): > 100 µM (inactive) | GI50 (NCI-H23): > 100 µM (inactive) | GI50 (RPMI-8226): > 100 µM (inactive) | GI50 (SNB-78): > 100 µM (inactive) | GI50 (HCC 2998): > 100 µM (inactive) | GI50 (SF-268): > 100 µM (inactive) | GI50 (LXFL 529): 99.1 µM (inactive) | GI50 (XF498): > 100 µM (inactive) | GI50 (COLO 205): > 100 µM (inactive) | GI50 (SK-MEL-28): > 100 µM (inactive) | GI50 (OVCAR-8): > 100 µM (inactive) | GI50 (MOLT-4): > 100 µM (inactive) | GI50 (SNB-19): > 100 µM (inactive) | GI50 (UACC-62): 55.2 µM (inactive)
